Measured values from patent US6600076B1, “Cleavable, water-soluble surfactants” (The Regents of the University of California, priority 1999, dated 2003).
Like-named read-outs stand apart in the source and are kept apart here. One block for each compound: values may come before it.

How the values were obtained:
[1] = Surface tension of aqueous solutions, maximum bubble pressure tensiometer, incl. reduction with DTT; assay type: physicochemical; conditions: for effect on surface tension of water: 10 mM DTT and 1 mM oxidized DTT added to water
Description: (Menger, F. M. et al., J. Am. Chem. Soc. 115:10083-10090 (1993)). […] The surface tensions of the reacting system reported herein correspond, therefore, to a local steady state at the surface of the solution. In the absence of reaction, these surface tensions are equilibrium tensions.

[2] = Cyclic voltammetry; assay type: physicochemical; conditions: 5 mM of 1 or 10 mM of 2, 50 mM phosphate buffer pH 6.9, SCE reference
Experimental: Solutions were prepared in 50 mM phosphate buffer, pH 6.9. Application of potential was controlled using a potentiostat (Pine Instruments, Grove City, Pa.), and the experimental set-up involved using a carbon felt working electrode with cobalt phthalocyanine (catalyst) evaporated onto the surface of the electrode. A platinum counter electrode and SCE reference electrode were also used.

[3] = Surface tension after oxidation with NaOCl or bleach (pendant drop); assay type: physicochemical; conditions: for surface tension: 4 mM
Experimental: To test the idea that oxidation of 1 by NaOCl would transform 1 into less surface-active products, changes in surface tensions that accompanied additions of aliquots of NaOCl to solutions of 1 were measured. The amount of OCl^− consumed by reaction with 1 was also determined by iodometry. The initial surface tension of the 2 mM solution (using the pendant drop technique) was measured to be 48 mN/m. […] The addition of subsequent aliquots of NaOCl, however, caused the surface tension to increase to ˜71 mN/m. […] In this case, only ˜8% of the OCl^− added remained unreacted.
The oxidation of 1 using NaOCl (6:1 ratio of NaOCl to 1) was performed in 50 mM phosphate buffers at three different pHs (pH 3, 6.9, and 11). Following the addition of NaOCl to aqueous solutions of 1 at pH 3 and pH 6.9, the surface tensions of the solutions were measured to increase from ˜48 mN/m to ˜71 mN/m within ˜5 min (FIG. 17). The surface tension was also determined to increase from ˜48 mN/m to ˜71 mN/m upon addition of NaOCl to an aqueous solution of 1 at pH 11. In this case, however, it took ˜15 min for the surface tension to increase to 71 mN/m. […] Therefore disulfide-based surfactants can form the basis of chemodegradable surfactant system that can be used over a wide pH range.
Household bleach was added (6:1 ratio of NaOCl to 1) to a 2 mM solution of 1 in pH 6.9 buffer. Upon addition of bleach to 1, the surface tension of the solution increased from 48 mN/m to ˜71 mN/m in ˜3 min (FIG. 18A), a result similar to our earlier observations based on the addition of NaOCl to 1. […] A control experiment was performed in which the household bleach was added to the phosphate buffer and found not to change the surface tension.

[4] = cited from earlier work
[5] = Interfacial tension between dodecane and aqueous solution on oxidation by NaOCl; assay type: physicochemical
[6] = DTT (10 equivalents) added
[7] = 10 mM of 1, 5 wt. % dodecane, NaOCl 6:1
[8] = Stability of solid and of aqueous solutions (surface tension over time); assay type: physicochemical; conditions: 1 mM solution in 50 mM phosphate buffer (pH 6.9)
[9] = Equilibrium surface tension, Wilhelmy plate, borate buffer; assay type: physicochemical; conditions: 100 mM borate buffer, pH 9.2
Experimental: Disulfide-containing surfactants with anionic head groups were synthesized. […] Equilibrium surface tensions were measured using a Kruss K10T tensiometer with a platinum Wilhelmy plate. Surfactant solutions were prepared in a 100 mM borate buffer, pH 9.2.

[10] = Surface tension, pendant drop; conditions: 50 mM phosphate buffer pH 6.9, concentrations around or above 10 mM

average area occupied at the surface ([1]; 2 mM solution of 2, Gibbs adsorption equation): > 500 A^2/molecule
threshold concentration of surfactant causing a measurable reduction in surface tension ([1]; 50 mM phosphate buffer, pH 6.9, 25° C.): ~1 mM
oxidation peak [2]: 0.55 V
Compound: C[N+](C)(C)CCCCCCCCS.[Br-] [compound 2, (8-mercaptooctyl)trimethylammonium bromide]

Compound: CCCCCCCCCCCC[N+](C)(C)C.[Br-] [DTAB, dodecyltrimethylammonium bromide, reference compound]
surface tension of the initial solution ([3]; 4 mM solution, before NaOCl): ~52 mN/m
surface tension ([3]; first equivalent of NaOCl): ~43 mN/m
surface tension ([3]; second equivalent of NaOCl): ~50 mN/m
surface tension ([3]; up to six equivalents of NaOCl): 45 mN/m

Compound: CCCCCCCCCCCCOS(=O)(=O)[O-].[Na+] [SDS, sodium dodecyl sulfate]
surface pressure at an air-aqueous interface ([4]; 1 mM solution): 7.5 mN/m
surface pressure at the heptadecane-aqueous interface ([4]; 1 mM solution): 15.2 mN/m

Compound: bis(8-trimethylammonium bromide)dioctyl disulfide [compound 1]
time for the interfacial tension to increase ([5]; 10 mM, 6 equivalents of NaOCl): ≤ 3 min
completion of phase separation of the emulsion [6]: ~120 min
duration of the rapid oxidation [3]: 2 to 3 min
time for the surface tension to increase ([3]; NaOCl 6:1, pH 3 and pH 6.9): ≤ 5 min
time for the surface tension to increase ([3]; NaOCl 6:1, pH 11): ~15 min
time for the surface tension to increase ([3]; household bleach, 6:1, pH 6.9): ~3 min
completion of phase separation of the emulsion [7]: 45 min
evidence of phase separation of the emulsion [7]: ≤ 10 min

Compound: OC1CSSCC1O (centres unmarked) [oxidized DTT, reference compound]
effect on surface tension of water [1]: did not result in a change in surface tension

Compound: O[C@H](CS)[C@H](O)CS (racemic) [DTT, dithiothreitol, reference compound]
effect on surface tension of water [1]: did not result in a change in surface tension

Compound: CCCCCCCCCCCCCCCC[N+](C)(C)C.[Br-] [CTAB, cetyltrimethylammonium bromide]
limiting surface tension (γlim) ([4]; in 0.1 M lithium sulfate): 39 mN/m
increase in surface tension over 24 h [8]: ~0.5 mN/m
increase in surface tension over 5 days [8]: 1 mN/m
surface tension [8]: ~41 mN/m

differences in equilibrium surface tensions between 3 and 4 at a specified concentration [9]: up to 16 mN/m
Compound: 1,16-dicarboxylic dioctyl disulfide [compound 3]

Compound: C[N+](C)(C)CCCCCCCCCCCC[N+](C)(C)C.[Br-].[Br-] [dodecane-1,12-bis(trimethylammoniumdibromide)]
limiting surface tension ([4]; dissolved into water): 38 mN/m

surface pressure π at the interface of dodecane and water ([5]; 10 mM of 1 oxidized): 22.5 mN/m
surface pressure π at the surface of water ([5]; concentration of 10 mN (printed)): 2 mN/m
limiting surface tension [10]: ~47 mN/m
surface activity of the oxidation product ([3]; up to a concentration of 10 mM, 6:1 NaOCl to 1): surface-inactive
Compound: O=C(O)CCCCCCCS [compound 4, 8-mercaptooctanoic acid]
